{"source": "paper PMC8226722", "about": "“Comparison of Solution Chemical Properties and Biological Activity of Ruthenium Complexes of Selected β-Diketone, 8-Hydroxyquinoline and Pyrithione Ligands” (Pharmaceuticals, 2021)", "key": {"[1]": {"test": "Solution stability and speciation (UV-vis, 1H-NMR, pH-potentiometry)", "settings": "for logK formation constant: suggested on the basis of pH-potentiometric data; for pH-dependent stability, UV-vis spectra: pH range 2–11, 24 h", "procedure": "In order to confirm our prediction, time-dependent UV-visible (UV-vis) spectra were recorded for complexes 5–8 at pH 7.4 in aqueous solution (in modified phosphate buffered saline (PBS) buffer—PBS’) and in Eagle’s minimum essential medium (EMEM) used for the cytotoxicity studies in the presence of 2% (v/v) dimethyl sulfoxide (DMSO). […] Additionally, ^1H-NMR spectra were recorded for more water-soluble complexes 6–8.\nIn order to compare the stability of 1 and 3 at physiological pH, a serial dilution was made and UV-vis spectra were recorded in a wide concentration range (10 μM–3 mM) (Figure S10).\nTitrations were performed in a carbonate-free KOH solution (0.20 M). The exact concentration of HCl and KOH solutions was determined by pH-potentiometric titrations.\nThe path length (l) was usually 1 cm, and 2, 5, 20 or 50 mm cells were used occasionally. Equilibrium constants (proton dissociation, stability constants, conditional stability constants (K’7.4) for the formation of mim adducts) and the individual spectra of the species were calculated with the computer program PSEQUAD [55]. The spectrophotometric titrations were performed in aqueous solution of the complexes at 25.0 ± 0.1 °C at an ionic strength of 0.20 M (KCl). Spectrum of the solution of 200 μM complex upon addition of one or two equivalents of its own ligand or phen was also measured at pH 7.4. UV-vis spectra recorded for the complexes as a function of chloride concentrations or PTA (in case of the chlorido complexes) were used to investigate the co-ligand exchange processes at pH 7.4. […] In some cases, the measurements were performed in the presence of 1–2% (Cl^−/PTA exchange reactions) or 6–8% (v/v) (interaction of mim with complexes 2, 4) DMSO.\n^1H-NMR stability studies were carried out on a Bruker Avance III HD 500 MHz instrument. All ^1H-NMR spectra were recorded on samples containing 10% (v/v) D2O with the WATERGATE water suppression pulse scheme using DSS internal standard. Stability of complexes 6–8 was checked over time by ^1H-NMR spectroscopy at 500 μM in PBS’ or in EMEM (with 10% (v/v) DMSO-d6)."}, "[2]": {"test": "Shake-flask n-octanol/water distribution coefficient", "type": "physicochemical", "settings": "25.0 °C, 20 mM phosphate buffer", "description": "Chloride ion concentrations of 4, 24 and 100 mM were chosen according to the chloride content of the nucleus, cytosol and blood serum, respectively. […] Then parallel artificial membrane permeability assay (PAMPA) was used to estimate the ability of the complexes to penetrate membranes by passive diffusion and the effective passive permeability coefficients (Peff) obtained for complexes 1–3 are shown in Table 4 (in case of 4, there are no data due to formation of precipitate).\nDistribution coefficients at physiological pH (D7.4) of the complexes were determined by the traditional shake-flask method in n-octanol/buffered aqueous solution at pH 7.40 (20 mM phosphate buffer) at various chloride concentrations and at 25.0 ± 0.2 °C using UV-vis detection as described in our former works [37, 38, 42]. PAMPA was applied for the complexes with a Gentest pre-coated PAMPA Plate System (Corning, Corning, NY, USA) [56]. Briefly, a 96-well filter plate was used as the permeation acceptor and the 96-well bottom plate was used as the permeation donor. For simplicity, PBS was used both as donor and acceptor buffer throughout this study. […] Peff values were calculated according to the equation reported by Yu et al. [57]."}, "[3]": {"test": "UV-vis interaction with 1-methylimidazole, monodentate binding model of HSA", "settings": "pH 7.4, 102 mM chloride", "procedure": "In our previous work, the fast interaction of complexes 7 and 8 with thiol-containing low molecular mass endogenous compounds Cys, N-acetylcysteine and glutathione was found on the basis of a mass spectrometry study. The donor atoms generally coordinate at the site of the monodentate co-ligand, however, they can also displace the weakly bound bidentate ligand as well. Herein, interaction of the complexes 1–4 towards 1-methylimidazole (mim), a monodentate binding model of HSA was measured by UV-vis (Figure 7d–f).\nThe reactions in all cases were very fast (except complex 2 and 4), and the observed spectral changes were similar to those obtained with HSA (Figure 7a–c). There was no indication for the replacement of the bidentate ligand by 1-methylimidazole. Considering that the latter ligand binds at the coordination site of the co-ligand, maximum one complex is able to be bound to 1-methylimidazole. However, the constant spectra upon addition of 1-methylimidazole to the complex 4 could only be reached at high excess of 1-methylimidazole due to its lower tendency to interact with this model (and with HSA as well). Based on these spectral changes, conditional binding constants were calculated for the formation of the 1-methylimidazole adducts. […] The protecting role of PTA in ligand-exchange processes for the complex pair 7 and 8 was also reported regarding their interaction with thiols or protein NCp7 [46, 47]."}, "[4]": {"target": "T1, Human serum albumin (HSA) (Homo sapiens, UniProt P02768)", "T1 construct": "purchased Sigma-Aldrich A8763", "T1 sequence (P02768 25-609)": "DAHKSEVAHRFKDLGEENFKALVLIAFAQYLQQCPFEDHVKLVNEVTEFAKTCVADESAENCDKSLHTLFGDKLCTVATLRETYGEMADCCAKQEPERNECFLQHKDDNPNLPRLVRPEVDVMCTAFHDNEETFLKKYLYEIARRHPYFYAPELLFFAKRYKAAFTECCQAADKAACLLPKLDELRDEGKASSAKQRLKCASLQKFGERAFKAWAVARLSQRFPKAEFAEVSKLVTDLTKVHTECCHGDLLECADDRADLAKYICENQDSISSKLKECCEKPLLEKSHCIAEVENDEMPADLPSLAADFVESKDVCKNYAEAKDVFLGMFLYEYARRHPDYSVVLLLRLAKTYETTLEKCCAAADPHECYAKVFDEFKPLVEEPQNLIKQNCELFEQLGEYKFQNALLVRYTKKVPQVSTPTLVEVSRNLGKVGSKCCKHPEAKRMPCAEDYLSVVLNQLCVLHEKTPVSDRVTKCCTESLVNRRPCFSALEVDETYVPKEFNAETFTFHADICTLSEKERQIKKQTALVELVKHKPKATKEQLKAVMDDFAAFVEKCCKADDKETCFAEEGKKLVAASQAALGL", "test": "HSA binding by spectrofluorometry (Trp-214 quenching, site marker displacement)", "settings": "pH 7.40 PBS’, 25 °C; for logKWF’ (warfarin displacement): site I marker; for logKDG’ (dansyl glycine displacement): site II marker", "procedure": "Steady-state spectrofluorometric measurements were also performed to assay the binding interactions at the binding pockets of HSA located in the IIA and IIIA subdomains. His residues are found nearby at both binding sites, and covalent binding is possible here. Trp-214 quenching and site marker displacement experiments were conducted as reported in our former works. Warfarin (WF) was applied as site I marker and dansyl glycine (DG) was used for site II. Representative emission spectra for Trp-214 quenching in case of 1 are shown in Figure 8a, and changes in the intensities at the emission maximum are compared for 1–4 in Figure 8b. Based on the spectral changes conditional binding constants were computed for both of the quenching and site marker displacement assays (Table 5).\nComplex 2 is hardly bound at site I, while binding of 3 and 1 is considered as a strong interaction here.\nFluorescence studies were performed using a Fluoromax (Horiba Jobin Yvon, Kyoto, Japan) fluorometer in 1 × 1 cm quartz cells. All samples contained 1 μM HSA and various HSA-to-metal complex ratios (up to complex:HSA = 1:40) were used. Site marker displacement experiments were also carried out, and in the samples the HSA-to-site marker (WF or DG) ratio was 1:1 and the concentration of the complex compounds was varied. For the Trp quenching, the WF and DG displacement experiments λEX = 295, 310 and 335 nm was applied and emission spectra were recorded spectra in the wavelength range 310–450, 320–500 and 420–600 nm, respectively. Computer program HypSpec was utilized for calculation of binding constants (K’) for HSA–metal complex adducts similar to the approach described in our former works. Calculations were always based on data obtained from at least two independent measurements."}, "[5]": {"tested_on": "HeLa 229 human cervix carcinoma cells", "test": "MTT cytotoxicity in HeLa 229 cells (maximum non-toxic concentration)", "settings": "48 h", "description": "(§1) HeLa 229 cells (ATCC) and Vero cells (ATCC) were cultured in minimal essential medium (MEM) (Sigma, Steinheim, Germany) with Earle salts supplemented with 10% heat-inactivated fetal bovine serum (FBS) (Gibco; ThermoFisher Scientific, Inc., Waltham, MA, USA), 2 mM L-glutamine, 1× non-essential amino acids, 8 mM HEPES, 25 μg/mL gentamycin and 1 µg/mL fungisone. The cells were incubated for 1 h at room temperature to reduce the edge effect and then overnight at 37 °C, 5% CO2 to obtain a 90% confluent cell layer.\n(§2) The density of cells was 4 × 10^4 cells/well in 100 µL of MEM with Earle salts supplemented with 10% heat-inactivated FBS, 2 mM L-glutamine, 1× MEM vitamins, 1× non-essential amino acids, 0.005% Na-pyruvate, 25 µg/mL gentamycin, 1 µg/mL fungisone). The plates were incubated for 1 h room temperature and then overnight at 37 °C, 5% CO2. Next day, when the cells reached a ~90% confluency, the medium was supplemented with the serial 2-fold dilutions of the complexes in three parallel wells for each concentration. […] After 24 h incubation for Vero cells and 48 h incubation for HeLa cells, 10 µL of the MTT (Sigma, Steinheim, Germany) labelling reagent (final concentration 0.5 mg/mL) was added to each well and the plate was incubated for 4 h at 37 °C, 5% CO2. After the incubation, 100 µL of the solubilisation solution (10% SDS in 1 M HCl) was added into each well, and the plate was allowed to stand overnight in the incubator at 37 °C, 5% CO2."}, "[6]": {"tested_on": "ovarian carcinoma CH1", "design": "method as in PMID 25856666", "settings": "cited from earlier work"}, "[7]": {"tested_on": "Vero cells", "test": "MTT cytotoxicity in Vero cells (maximum non-toxic concentration)", "settings": "24 h, up to 100 µM", "description": "The antiviral effect of complexes against HSV-2 was screened using Vero cells (originally isolated from kidney epithelial cells) to host the growing viruses.\nas §1, §2"}, "[8]": {"tested_on": "osteosarcoma MG63 cells", "design": "method as in PMID 25856666", "settings": "cited from earlier work"}}}
{"smiles": "Cc1ccc(C(C)C)cc1.[Cl-].[O-]n1ccccc1=S.[Ru+2]", "note": "[complex 1]", "values": [{"measurement": "fraction of unbound Ru(η6-p-cymene)", "setting": "[1]; 1H-NMR, pH 1.0, 24 h, 200 mM chloride", "value": "< 3", "unit": "%"}, {"measurement": "logK formation constant", "setting": "[1]", "value": "> 8"}, {"measurement": "logD7.4", "setting": "[2]; pH 7.4, c(KCl) 4 mM", "value": "−0.43 ± 0.09"}, {"measurement": "logD7.4", "setting": "[2]; pH 7.4, c(KCl) 24 mM", "value": "−0.10 ± 0.05"}, {"measurement": "logD7.4", "setting": "[2]; pH 7.4, c(KCl) 100 mM", "value": "+0.31 ± 0.03"}, {"measurement": "LogK’ conditional binding constant of 1-methylimidazole adduct", "setting": "[3]", "value": "4.16 ± 0.45"}, {"measurement": "logKWF’ (warfarin displacement)", "setting": "[4]", "value": "6.16 ± 0.03"}, {"measurement": "logKDG’ (dansyl glycine displacement)", "setting": "[4]", "value": "5.80 ± 0.03"}, {"measurement": "logKQ’ (Trp-214 quenching)", "setting": "[4]; titration, site I", "value": "5.81 ± 0.03"}]}
{"smiles": "C1N2CN3CN1CP(C2)C3.Cc1ccc(C(C)C)cc1.F[P-](F)(F)(F)(F)F.[O-]n1ccccc1=S.[Ru+2]", "note": "[complex 2]", "values": [{"measurement": "pH-dependent stability, UV-vis spectra", "setting": "[1]", "value": "stayed unchanged"}, {"measurement": "logKQ’ (Trp-214 quenching)", "setting": "[4]; titration, site I", "value": "<4"}]}
{"smiles": "Cc1ccc(C(C)C)cc1.[Cl-].[O-]n1ccc2ccccc2c1=S.[Ru+2]", "note": "[complex 3]", "values": [{"measurement": "logK formation constant", "setting": "[1]", "value": "> 8"}, {"measurement": "logD7.4", "setting": "[2]; pH 7.4, c(KCl) 4 mM", "value": "+0.92 ± 0.06"}, {"measurement": "logD7.4", "setting": "[2]; pH 7.4, c(KCl) 24 mM", "value": "+1.22 ± 0.04"}, {"measurement": "logD7.4", "setting": "[2]; pH 7.4, c(KCl) 100 mM", "value": "+1.37 ± 0.06"}, {"measurement": "LogK’ conditional binding constant of 1-methylimidazole adduct", "setting": "[3]", "value": "4.18 ± 0.27"}, {"measurement": "logKWF’ (warfarin displacement)", "setting": "[4]", "value": "5.98 ± 0.03"}, {"measurement": "logKDG’ (dansyl glycine displacement)", "setting": "[4]", "value": "5.61 ± 0.03"}, {"measurement": "logKQ’ (Trp-214 quenching)", "setting": "[4]; titration, site I", "value": "6.18 ± 0.03"}]}
{"smiles": "C1N2CN3CN1CP(C2)C3.Cc1ccc(C(C)C)cc1.F[P-](F)(F)(F)(F)F.[O-]n1ccc2ccccc2c1=S.[Ru+2]", "note": "[complex 4]", "values": [{"measurement": "pH-dependent stability, UV-vis spectra", "setting": "[1]", "value": "stayed unchanged"}, {"measurement": "LogK’ conditional binding constant of 1-methylimidazole adduct", "setting": "[3]", "value": "3.64 ± 0.02"}, {"measurement": "logKQ’ (Trp-214 quenching)", "setting": "[4]; batch, 48 h equilibration", "value": "5.39 ± 0.03"}, {"measurement": "logKQ’ (Trp-214 quenching)", "setting": "[4]; titration, site I", "value": "4.46 ± 0.03"}]}
{"smiles": "Cc1ccc(C(C)C)cc1.O=C(C=C([O-])C(F)(F)F)c1ccc(Cl)cc1.[Cl-].[Ru+2]", "note": "[complex 7]", "values": [{"measurement": "maximum non-toxic concentration, HeLa 229", "setting": "[5]", "value": 50, "unit": "µM"}, {"measurement": "IC50", "setting": "[6]", "value": 17, "unit": "µM"}, {"measurement": "toxicity in Vero cells", "setting": "[7]", "value": "did not produce significant toxicity at any of the concentrations"}, {"measurement": "IC50", "setting": "[8]", "value": 64, "unit": "µM"}]}
{"smiles": "C1N2CN3CN1CP(C2)C3.Cc1ccc(C(C)C)cc1.F[P-](F)(F)(F)(F)F.O=C(C=C([O-])C(F)(F)F)c1ccc(Cl)cc1.[Ru+2]", "note": "[complex 8]", "values": [{"measurement": "maximum non-toxic concentration, HeLa 229", "setting": "[5]", "value": 50, "unit": "µM"}, {"measurement": "IC50", "setting": "[6]", "value": 8, "unit": "µM"}, {"measurement": "toxicity in Vero cells", "setting": "[7]", "value": "did not produce significant toxicity at any of the concentrations"}, {"measurement": "IC50", "setting": "[8]", "value": 41, "unit": "µM"}]}
